Source: patent US9296698B2, “Amino heteroaryl compounds as beta-secretase modulators and methods of use” (Amgen Inc., priority 2009, dated 2016)
Where two headings read alike, the source gives them in different places.

Tests used:
[1] = tested on: Aβ40 in conditioned medium of cells stably expressing Amyloid Precursor Protein (APP); experiment: In vitro BACE cell-based assay (HEK cell assay), Aβ40 sandwich ELISA
In short: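 Cells stably expressing APP received 10-point compound dilutions (top 100 μM or 10 μM; 0.1% DMSO) for 24 h. Secreted Aβ40 was quantified by sandwich ELISA (pAb40 capture, biotinylated 6E10 detection, europium time-resolved fluorescence). IC50 was derived from percent inhibition versus concentration.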

[2] = molecular target: BACE 1 (Beta Secretase enzyme) (Homo sapiens, UniProt P56817); experiment: In vitro enzymatic BACE FRET assay; format: biochemical
Sequence of BACE 1 (Beta Secretase enzyme) (P56817 46-501, species assumed): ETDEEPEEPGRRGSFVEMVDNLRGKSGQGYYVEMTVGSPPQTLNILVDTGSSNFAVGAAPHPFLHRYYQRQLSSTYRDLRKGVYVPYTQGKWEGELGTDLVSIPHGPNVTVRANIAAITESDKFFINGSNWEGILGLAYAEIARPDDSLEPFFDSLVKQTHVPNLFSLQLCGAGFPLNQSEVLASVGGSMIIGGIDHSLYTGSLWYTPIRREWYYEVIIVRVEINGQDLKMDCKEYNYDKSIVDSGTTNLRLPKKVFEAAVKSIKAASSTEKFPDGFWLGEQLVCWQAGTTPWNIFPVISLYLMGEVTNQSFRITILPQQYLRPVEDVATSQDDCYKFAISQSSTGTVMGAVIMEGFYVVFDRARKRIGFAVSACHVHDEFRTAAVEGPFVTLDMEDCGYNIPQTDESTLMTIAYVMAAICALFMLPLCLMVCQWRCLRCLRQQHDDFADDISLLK
In short: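 BACE activity read by FRET: peptide substrate (50 nM) carrying fluorophore and quencher across the cleavage site, incubated one hour in 0.05 M acetate pH 4.2, 10% DMSO final, 100 uM genapol. Tris addition raises pH to neutrality to stop the reaction before fluorescence is read.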

[3] = Homo sapiens, HEK293, 24 h, IC50 range symbols, Table 1, Aβ40, 24 h incubation, read-out: HEK cell assay
[4] = IC50 range symbols, Table 1, read-out: BACE 1 FRET assay
[5] = IC50 range symbols, Table 1, Aβ40, 24 h incubation, read-out: HEK cell assay

Compound	IC50 [1, 3] [nM]	IC50 [2, 4] [nM]	IC50 [1, 5] [nM]	IC50 ([1]; Homo sapiens, HEK293, bound stated in text, read-out: IC50 value in the BACE cell-based in-vitro assay) [nM]	IC50 ([2]; bound stated, read-out: IC50 value in the FRET BACE enzyme assay) [nM]
CC(Cc1cc2cc(-c3ncccc3Cl)ccc2nc1N)C(=O)NC[C@H]1CCCCO1 (stereo partly drawn) [Example 83, 3-(2-amino-6-(3-chloropyridin-2-yl)quinolin-3-yl)-2-methyl-N-(((R)-tetrahydro-2H-pyran-2-yl)methyl)propanamide]	1000 to 5000	< 500			
3-(3-amino-7-o-tolylnaphthalen-2-yl)-N-((R)-1-(2-fluorophenyl)ethyl)propanamide [Example 55]		< 500	1000 to 5000		
Cc1ccccc1-c1ccc2nc(N)c(CCC(=O)N[C@H](C)c3cccnc3)cc2c1 [Example 78, 3-(2-amino-6-o-tolylquinolin-3-yl)-N-((R)-1-(pyridin-3-yl)ethyl)propanamide]		1000 to 5000	> 5000		
CC(=O)c1ccccc1-c1ccc2nc(N)c(CC(C)C(=O)Nc3ccccc3)cc2c1 (centres unmarked) [Example 152, 3-(6-(2-acetylphenyl)-2-aminoquinolin-3-yl)-2-methyl-N-phenylpropanamide]	< 500	< 500			
CNC(=O)[C@H](C)Cc1cc2cc(-c3c(C)cccc3C(=O)N3CCCC3)ccc2nc1N [Example 9, (R)-3-(2-amino-6-(2-methyl-6-(pyrrolidine-1-carbonyl)phenyl)quinolin-3-yl)-N,2-dimethylpropanamide]	< 500	< 500		< 100	< 50
Cc1ccccc1-c1ccc2nc(N)c(CCC(=O)NC3CCOCC3)cc2c1 [Example 15, 3-(2-amino-6-o-tolylquinolin-3-yl)-N-(tetrahydro-2H-pyran-4-yl)propanamide]	> 5000	< 500			
Cc1ccc(CNC(=O)CCc2cc3cc(-c4ccccc4C)ccc3nc2N)c(F)c1 [Example 68, N-(2-fluoro-4-methylbenzyl)-3-(2-amino-6-o-tolylquinolin-3-yl)propanamide]	> 5000	1000 to 5000			
COC(Cc1cc2cc(-c3ccccc3C)ccc2nc1N)C(=O)NCC1CCCCC1 (centres unmarked) [Example 71, 3-(2-amino-6-o-tolylquinolin-3-yl)-N-(cyclohexylmethyl)-2-methoxypropanamide]	1000 to 5000	< 500			
CC(Cc1cc2cc(-c3ncccc3Cl)ccc2nc1N)C(=O)NC[C@@H]1CCCCO1 (stereo partly drawn) [Example 82, 3-(2-amino-6-(3-chloropyridin-2-yl)quinolin-3-yl)-2-methyl-N-(((S)-tetrahydro-2H-pyran-2-yl)methyl)propanamide]	1000 to 5000	500 to 1000			
C#CC1CC(NC(=O)[C@H](C)Cc2cc3cc(-c4ccccc4C)ccc3nc2N)CCO1 (stereo partly drawn) [Example 160, (R)-3-(2-amino-6-o-tolylquinolin-3-yl)-N-(cis-2-ethynyltetrahydro-2H-pyran-4-yl)-2-methylpropanamide]	< 500	< 500			
COc1ccccc1[C@@H](C)NC(=O)[C@@H](C)Cc1cc2cc(-c3ccccc3C)ccc2nc1N [Example 75, (S)-3-(2-amino-6-o-tolylquinolin-3-yl)-N-((R)-1-(2-methoxyphenyl)ethyl)-2-methylpropanamide]	1000 to 5000	< 500			
Cc1cccnc1-c1ccc2nc(N)c(CC(C)C(=O)N[C@H](C)C(F)(F)F)cc2c1 (stereo partly drawn) [Example 114, 3-(2-amino-6-(3-methylpyridin-2-yl)quinolin-3-yl)-2-methyl-N-((R)-1,1,1-trifluoropropan-2-yl)propanamide]	1000 to 5000	1000 to 5000			
